Experimental data as given in patent US8557816B2, “Aurora kinase modulators and method of use” (Amgen Inc., priority 2007, dated 2013).
Where two headings read alike, the source gives them in different places.

How the values were obtained:
AuroraB = target: T1, AuroraB (Homo sapiens, UniProt Q96GD4); assay: AuroraB Homogeneous Time Resolved Fluorescent (HTRF) kinase assay; assay type: biochemical
T1 construct: 20 μL of AuroraB FL H is for a final volume of 41 μL; His
Procedure, shortened: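 Read-out is time-resolved FRET between europium anti-phospho-H3 antibody and streptavidin-APC, added in EDTA buffer to stop the reaction and equilibrated about 60 min (ex 320, em 615 and 655 nm). Preceding reaction: ~90 min, full-length enzyme, ATP, 0.1 μM biotin-Histone H3 substrate, Mg/Mn HEPES buffer pH 7.5.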

HCT116 xenografts = assay: HCT116 xenograft model (human colon carcinoma), tumor growth inhibition; assay type: in vivo; conditions: p.o., athymic nude mice
Protocol: Compounds of the present invention were evaluated in HCT116 xenografts, a human colon carcinoma model. […] These cells were grown as subcutaneous xenografts in female HSD (Harlan Sprague Dawley) athymic nude mice. Mice were implanted subcutaneously with 2×10^6 cells in matrigel on day 0. Treatment was initiated on day 10 with compounds of the invention at the indicated dosage p.o for 2 consecutive-days per week (intermittent schedule, such as 2 days on-5 days off) or 7-days (continuous schedule) per week, for a selected number of weeks. For example, in one study, animals were dosed with selected compound samples BID on an intermittent dosing paradigm of two days on and then 5 days off per week, for four weeks (four dosing cycles) at 15, 7.5, and 3.75 mg/kg. Tumor growth inhibition and body weights were measured throughout the study and compared to the vehicle control group. All groups were provided nutritional supplements on a daily basis throughout the study to maintain body weight. Terminal neutrophil counts were taken at the end of this study. Measures were made by ANOVA followed by Scheffe post hoc test using StatView software v5.0.1.
10 Flasks containing a total of 7.68×10^8 HCT116 tumor cells were harvested for tumor cell implantation. HCT 116 cells were re-suspended to a cell concentration of about 2×10^7 cells/ml in serum-free McCoys 5A media+50% matrigel. Cell viability was measured to be about 99.3%.
Female Athymic Nude mice approximately 14 weeks of age (Harlan Sprague Dawley) were used for the experiment. Mice were housed five per filter-capped cage in sterile housing in an environmentally controlled room (temperature 23±2° C., relative humidity 50±20%) on a 12-hr light/dark cycle. […] On Day 9, tumor-bearing mice were measured and randomized into five groups (n=10). […] During the dosing period, mouse tumor volumes were measured with a digital caliper and weighed twice per week. Tumor volumes were calculated as follows: Tumor Volume (mm^3) [(W^2×L)/2] where width (W) is defined as the smaller of the 2 measurements and length (L) is defined as the larger of the 2 measurements.

AuroraA-TPX2 = target: T2, AuroraA-TPX2 (Homo sapiens, UniProt O14965); assay: AuroraA-TPX2 Homogeneous Time Resolved Fluorescent (HTRF) kinase assay; assay type: biochemical
T2 construct: 20 μL of AuroraA-TPX2 KD GST for a final volume of about 41 μL; GST
T2 sequence (O14965 133-383 limits assumed): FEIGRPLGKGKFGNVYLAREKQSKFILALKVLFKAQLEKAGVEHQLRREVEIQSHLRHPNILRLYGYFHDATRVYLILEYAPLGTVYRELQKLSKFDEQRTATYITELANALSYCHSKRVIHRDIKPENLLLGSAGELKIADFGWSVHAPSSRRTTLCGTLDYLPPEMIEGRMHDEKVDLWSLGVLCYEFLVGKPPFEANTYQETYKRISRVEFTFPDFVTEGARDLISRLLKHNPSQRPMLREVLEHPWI
T2 sequence (Q9ULW0 1-43 partner limits assumed): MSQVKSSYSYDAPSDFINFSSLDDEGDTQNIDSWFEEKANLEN
Procedure, shortened: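 HTRF read-out (Eu 615 nm to APC 655 nm) of phosphorylated biotin-PLK, detected with 0.02 nM europium anti-phosphoPLK antibody and 0.0005 mg/mL SA-APC after overnight equilibration.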

HeLa cells = assay: HeLa cell 24 hr ploidy assay (DNA content); assay type: cell-based
Protocol: HeLa Cell 24 hr Ploidy Assay Protocol
The purpose of this assay is to evaluate the ability of selected individual compounds to induce Deoxyribonucleic acid (DNA) content (ploidy) in cells through failed cell division. Cell cycle analysis is a rapid and efficient way to evaluate the status of DNA content (ploidy) of a given cell. HeLa cells (1×10^4 HeLa cells/well) in 100 ul of media (MEM+10% FBS) were plated in 96-well plates (Packard View) and cultured for 24 hrs at 37° C. maintained in a 5% CO2 atmosphere. […] The compounds were serially diluted in DMSO (0.25% final concentration). The cells were fixed (3.7% Formaldehyde and 1% glutaraldehyde) and permeabilized (1×PBS with 1% BSA and 0.2% Triton X-100) in preparation for nuclear staining. The well plates were stained for 45 minutes at RT in the dark using Hoechest 33342 nuclear stain at 0.5 ug.ml (Stock of 10 mg/ml, Invitrogen, CA, Cat # H3570). The nuclear stain was removed by aspiration and the cells were washed with wash buffer. A Cellomics Array Scan Vti plate reader was used to acquire the DNA ploidy data of the cells using Cell Cycle bioapplication. Numbers for each of “valid cell count/well”, “% of 4N cells” and “% of >4Ncells” were calculated with the assistance of an Activity Base 5.1ca software and dose curves were generated using an XLFit software. With XLFit, final EC50 IP and EC50 transit values, as well as the Max and Min, were calculated for each curve.

[1] = average, read-out: AurB_IC50_IP (uM Avg)
[2] = average, read-out: AurA_IC50_IP (uM Avg)
[3] = 4N DNA content, average, read-out: 24h_4N Ploidy EC50_IP (uM Avg)

T1 sequence (Q96GD4 whole entry): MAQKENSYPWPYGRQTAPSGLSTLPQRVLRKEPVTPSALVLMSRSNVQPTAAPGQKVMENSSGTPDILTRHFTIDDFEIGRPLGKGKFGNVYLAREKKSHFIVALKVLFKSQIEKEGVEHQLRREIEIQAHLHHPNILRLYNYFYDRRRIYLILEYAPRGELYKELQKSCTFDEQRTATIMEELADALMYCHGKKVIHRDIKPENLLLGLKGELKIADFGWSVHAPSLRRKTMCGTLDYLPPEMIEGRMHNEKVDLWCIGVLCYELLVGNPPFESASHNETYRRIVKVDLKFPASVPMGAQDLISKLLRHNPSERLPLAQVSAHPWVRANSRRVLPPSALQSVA

Row | Molecule | IC50 (AuroraB; [1]) [µM] | IC50 (AuroraA-TPX2; [2]) [µM] | EC50 (HeLa cells; [3]) [µM] | other results
1 | 4-(4,5-dimethylthiophen-2-yl)-N-(4-(7-methoxy-1,5-naphthyridin-4-yloxy)phenyl)phthalazin-1-amine [Example 34] | 0.01 | 0.013 | 0.062 | –
2 | COc1cnc2c(Sc3ccc(Nc4nnc(-c5ccccc5)c5ccccc45)cc3)ccnc2c1 [Example 207, N-(4-((7-(methyloxy)-1,5-naphthyridin-4-yl)thio)phenyl)-4-phenyl-1-phthalazinamine] | 0.009 | 0.06 | – | inhibition of tumor growth (HCT116 xenografts; 5.0 mg/kg, 2-day dosing scheduling QD): ~67%
3 | (7-(4-(4-(4-methylthiophen-2-yl)phthalazin-1-ylamino)phenylthio)thieno[3,2-b]pyridin-2-yl)(morpholino)methanone [compound 296] | – | – | – | IC50 (AuroraB; given as class symbol, read-out: AurB_IC50_IP (class symbol)): < 0.1 µM; EC50 (HeLa cells; given as class symbol, read-out: 24h_4N Ploidy EC50_IP (class symbol)): < 0.1 µM; IC50 (AuroraA-TPX2; given as class symbol, read-out: AurA_IC50_IP (class symbol)): < 0.1 µM
4 | N-(5-(7-methoxy-1,5-naphthyridin-4-yloxy)pyridin-2-yl)-4-phenylphthalazin-1-amine [Example 54] | 0.02 | 0.176 | 0.028 | –
5 | Cc1csc(-c2nnc(Nc3ccc(Sc4ccnc5ccncc45)cc3)c3ccccc23)c1 [compound 428] | 0.013 | 0.032 | – | –
6 | COc1cnc2c(Sc3ccc(Nc4nnc(-c5ccc6c(c5)OCO6)c5ccccc45)cc3)ccnc2c1 [compound 530] | 0.014 | 0.014 | – | –

The remaining molecules from weak to strong by IC50 (AuroraB; [1]), led by results:

Row | IC50 (AuroraB; [1]) [µM] | IC50 (AuroraA-TPX2; [2]) [µM] | EC50 (HeLa cells; [3]) [µM] | Molecule | other results
7 | 0.007 | 0.009 | – | COc1cnc2c(Oc3ccc(Nc4nnc(-c5ccc6c(c5)OCO6)c5ccccc45)cc3)ccnc2c1 [Example 165, 4-(1,3-benzodioxol-5-yl)-N-(4-((7-(methyloxy)-1,5-naphthyridin-4-yl)oxy)phenyl)-1-phthalazinamine] | inhibition of tumor growth (HCT116 xenografts; 2.5 mg/kg, 2-day dosing scheduling BID): ~63%
8 | 0.006 | 0.026 | – | COc1cnc2c(Oc3ccc(Nc4nnc(-c5ccc(C)c(O)c5)c5ccccc45)cc3)ccnc2c1 [compound 449] | –
9 | 0.003 | 0.007 | – | COc1cnc2c(Oc3ccc(Nc4nnc(-c5ccc(Cl)cc5)c5ccccc45)cc3)ccnc2c1 [Example 160, 4-(4-chlorophenyl)-N-(4-((7-(methyloxy)-1,5-naphthyridin-4-yl)oxy)phenyl)-1-phthalazinamine] | inhibition of tumor growth (HCT116 xenografts; 3.75 mg/kg, 2-day dosing scheduling QD): ~86%
10 | 0.003 | 0.048 | 0.04 | 4-(4-chlorophenyl)-N-(3-fluoro-4-(4-quinolinyloxy)phenyl)-1-phthalazinamine [compound 244] | –
